Assay in all cases: Glass house spray test on tobacco, percent damage
Holding throughout (type): in vivo

One experiment deals with wild type tobacco plants. Particulars: 14 DAT. Here is the method: Once rooted, plantlets are transferred from agar and potted into 50% peat, 50% John Innes Soil No. 3 with slow-release fertilizer in 3 inch round pots and left regularly watered to establish for 8-12d in the glass house. Glass house conditions are about 24-27° C. day; 18-21° C. night and approximately a 14h photoperiod. Humidity is adjusted to ˜65% and light levels used are up to 2000 μmol/m^2 at bench level.
(§1) Three transgenic populations of about forty tobacco plants and comprising, a glucosyl transferase gene encoding either zmBX8 (SEQ ID NO 2) or zmBX9 (SEQ ID NO 1) were thus produced. A sub-set of about 30 plants were selected on the basis of similar size from each population for spray testing. The plants were then sprayed with 30 g/ha of Compound VI. VI was mixed in water with 0.2-0.25% X-77 surfactant and sprayed from a boom on a suitable track sprayer moving at 2 mph with the nozzle about 2 inches from the plant tops. Spray volume was 200 l/ha. Plants were assessed for damage and scored at 7 and 14 days after treatment (DAT).
(§2) In a further example, Zea mays BX8 or BX9 or orthologues of BX8/9, are altered to carry amino acid variants at various positions which increase tolerance to the alcohol and aminal PSII herbicides as described in the example above. DNA sequences that encode these polypeptides (optimized for tobacco or, optionally, codon optimized according to a target crop such as soybean) were prepared for tobacco transformation as described in example 10. […] Transgenic tobacco populations expressing SEQ ID NOs 16 and 17 were generated alongside a population expressing the parental zmBX9 sequence (SEQ ID 1). These populations were sprayed with herbicide V and VI at rates of 200 and 500 g/ha. Plants were assessed for damage and scored at 14 days after treatment (DAT). The results are depicted in Table 19 and also in FIG. 6.

Experiment [1] relates to transgenic tobacco plants expressing zmBX9 (SEQ ID No 1). The settings on record: for percent damage: 14 DAT, tobacco expressing SEQ ID NO 1, lines 6266 and 6291, clonal plants A-E. Here is the method: In the present example, Zea mays BX8 or BX9 or orthologues of BX8/9, for example SEQ ID Nos. 1-59 and various herbicide-active mutations and combinations of mutations thereof (e.g. as listed in Tables 1-9) are expressed in transgenic tobacco. DNA sequences that encode these polypeptides (optimized for tobacco or, optionally, codon optimized according to a target crop such as soybean) are prepared synthetically and obtained commercially from Genewiz (South Plainfield, USA). Each sequence is designed to include a 5′ fusion with TMV omega 5′ leader (SEQ ID NO: 109). The DNA sequences are flanked at the 5′ end with XhoI and at the 3′ end with KpnI to facilitate direct cloning into a suitable binary vector for Agrobacterium-based plant transformation.
In a particular example, the expression cassette, comprising the TMV omega 5′ leader and a BX encoding gene of interest is excised using XhoI/KpnI and cloned into similarly digested pBIN 19 (Bevan, Nucl. Acids Res. (1984) behind a double enhanced 35S promoter (SEQ ID NO:110) and ahead of a NOS 3′ transcription terminator (SEQ ID NO:111) and then transformed into E. coli DH5 alpha competent cells (see FIG. 5). DNA recovered from the E. coli is used to transform Agrobacterium tumefaciens LBA4404, and the transformed bacteria are selected on media contain rifampicin and kanamycin. Tobacco tissue is subjected to Agrobacterium-mediated transformation using methods well described in the art or as described herein. For example, a master plate of Agrobacterium tumefaciens containing the BX glucosyltransferase expressing binary vector is used to inoculate 10 ml LB (L broth) containing 100 mg/l Rifampicin plus 50 mg/l Kanamycin using a single bacterial colony. This is incubated overnight at 28° C. shaking at 200 rpm. This entire overnight culture is used to inoculate a 50 ml volume of LB containing the same antibiotics. Again this is cultured overnight at 28° C. shaking at 200 rpm. The Agrobacterium cells are pelleted by centrifuging at 3000 rpm for 15 minutes and then resuspended in MS (Murashige and Skoog) medium containing 30 g/l sucrose, pH 5.9 to an OD (600 nM)=0.6. This suspension is dispensed in 25 ml aliquots into petri dishes.
Once rooted, plantlets are transferred from agar and potted into 50% peat, 50% John Innes Soil No. 3 with slow-release fertilizer in 3 inch round pots and left regularly watered to establish for 8-12d in the glass house. Glass house conditions are about 24-27° C. day; 18-21° C. night and approximately a 14h photoperiod. […]
Three transgenic populations of about forty tobacco plants and comprising, a glucosyl transferase gene encoding either zmBX8 (SEQ ID NO 2) or zmBX9 (SEQ ID NO 1) were thus produced. […] Plants were assessed for damage and scored at 7 and 14 days after treatment (DAT). […]

Experiment [2] relates to transgenic tobacco plants expressing SEQ ID NO: 16. Particulars: for tolerance compared with w/t and SEQ ID NO: 1 plants: 200 and 500 g/ha, 14 DAT, several events.
Description: as §1
as §2, with “These populations were sprayed with herbicide V and VI at rates of 200 and 500 g/ha.” left out

“And” between values parts separate entries of the source, which are not always exact repeats. Equal values may be shown once.

For the compound `CON1C(=O)N(c2cc(C(F)(F)F)ccn2)C(O)[C@@H]1C` (some centres unmarked) [Compound VI], the percent damage is 75% and 95% and 85% in the experiment on wild type tobacco plants (30 g/ha compound VI, plants A, B, C); 100% with wild type tobacco plants (500 gai/ha VI, WT tobacco plants 1-9); 95% and 90% and 100% and 60% and 70% and 75% and 80% in experiment [1] (500 gai/ha VI). Further, the “tolerance” value is on record as “demonstrate tolerance” in experiment [1] (30 g/ha, several transgenic lines); “only partial tolerance” in experiment [1] (high rates, best two events); “substantially fully tolerant” in experiment [2] (1 kg/ha, events 7937, 7940, 7952, 8039, 8071, 8106 expressing SEQ ID NOs 16 and 17, data not shown). Besides, the “tolerance compared with w/t and SEQ ID NO: 1 plants” value in experiment [2] is reported as “much superior tolerance”.
In the case of `CN1CC(O)N(c2cc(C(F)(F)F)ccn2)C1=O` (centres unmarked) [Compound V], the percent damage with wild type tobacco plants (200 gai/ha V, WT tobacco plants 1-9) was 100%; in the experiment with wild type tobacco plants (500 gai/ha V, WT tobacco plants 1-9), 100%; in experiment [1] (500 gai/ha V), 100% and 80%. Besides, the “tolerance compared with w/t and SEQ ID NO: 1 plants” value in experiment [2] was “much superior tolerance”.

Source of the values: patent publication US20200270588A1, “GLUCOSYL TRANSFERASE POLYPEPTIDES AND METHODS OF USE” (Syngenta Participations AG, priority 2017, published 2020).
